Measurements from US20240368120A1 (Terns Pharmaceuticals, Inc., priority 2023, published 2024).
pEC50: −log10 of the molar value.

Biological target: T1, human GLP-1R receptor (Homo sapiens, UniProt P43220)
T1 construct: expressed in transfected cells
Experiment: GLP-1R low expression cell assay (cAMP TR-FRET, CHO-K1_hGLP-1Rlow_clone10 cells)
Assay type: cell-based
Conditions: for pEC50: cAMP TR-FRET, 30 min at 25° C.; for Emax: maximum activation relative to control GLP-1 peptide agonist
Procedure, shortened: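 CHO-K1 cells stably expressing low surface human GLP-1R (clone10), 1,000 cells/well, exposed to 10-point 3-fold compound dilutions for 30 min at 25 °C. cAMP measured by TR-FRET (Eu-cAMP tracer/ULight-anti-cAMP, 15 min). EC50 from Hill fit of duplicate percent activation relative to a parallel GLP-1 control agonist.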

T1 sequence (P43220 24-463): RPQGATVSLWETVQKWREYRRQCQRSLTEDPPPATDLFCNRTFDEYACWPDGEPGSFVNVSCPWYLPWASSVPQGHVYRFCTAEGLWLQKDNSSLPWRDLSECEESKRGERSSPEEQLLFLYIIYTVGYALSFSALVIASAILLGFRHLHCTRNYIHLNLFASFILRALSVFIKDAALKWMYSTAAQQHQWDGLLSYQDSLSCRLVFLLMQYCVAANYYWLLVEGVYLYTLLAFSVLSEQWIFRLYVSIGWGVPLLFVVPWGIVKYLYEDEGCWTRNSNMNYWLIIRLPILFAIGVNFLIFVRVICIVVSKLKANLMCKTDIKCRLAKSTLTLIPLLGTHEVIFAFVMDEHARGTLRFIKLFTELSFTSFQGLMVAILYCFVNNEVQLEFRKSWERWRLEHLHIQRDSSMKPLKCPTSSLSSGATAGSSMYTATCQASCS

Structure (SMILES)	pEC50	Emax
Cn1c(CN2CC=C(c3ccc(F)c(OCc4ccc(Cl)cc4F)c3)CC2)nc2c(OC(F)F)cc(C(=O)O)cc21 [Compound 152, 2-((4-(3-((4-Chloro-2-fluorobenzyl)oxy)-4-fluorophenyl)-3,6-dihydropyridin-1(2H)-yl)methyl)-4-(difluoromethoxy)-1-methyl-1H-benzo[d]imidazole-6-carboxylic acid]	7.00 to 8.00	> 85%
Cn1c(CN2CCC(c3cccnc3NCc3ccc(Cl)cc3F)CC2)nc2c(OC(F)F)cc(C(=O)O)cc21 [Compound 239, 2-((4-(2-((4-Chloro-2-fluorobenzyl)amino)pyridin-3-yl)piperidin-1-yl)methyl)-4-(difluoromethoxy)-1-methyl-1H-benzo[d]imidazole-6-carboxylic acid]	< 6.00	50 to 85%
COc1cc(C(=O)O)c(F)c2c1nc(CN1CCC(c3ccc(F)c(OCc4ccc(Cl)cc4F)c3)CC1)n2C [Compound 340, 2-((4-(3-((4-Chloro-2-fluorobenzyl)oxy)-4-fluorophenyl)piperidin-1-yl)methyl)-7-fluoro-4-methoxy-1-methyl-1H-benzo[d]imidazole-6-carboxylic acid]	7.00 to 8.00	> 85%
C[C@]1(c2ccc(Cl)cn2)Oc2cccc(C3CCN(Cc4nc5cc(C(=O)O)cc6c5n4CCO6)CC3)c2O1 [Compound 75, (S)-2-((4-(2-(5-chloropyridin-2-yl)-2-methylbenzo[d][1,3]dioxol-4-yl)piperidin-1-yl)methyl)-3,4-dihydro-5-oxa-1,2a-diazaacenaphthylene-7-carboxylic acid]	< 6.00	< 25%
N#Cc1ccc(COc2cccc(C3CCN(Cc4nc5cc(C(=O)O)c6c(c5n4C[C@@H]4CCO4)OCCO6)CC3)n2)c(F)c1 [Compound 101, (S)-2-((4-(6-((4-Cyano-2-fluorobenzyl)oxy)pyridin-2-yl)piperidin-1-yl)methyl)-1-(oxetan-2-ylmethyl)-7,8-dihydro-1H-[1,4]dioxino[2′,3′:3,4]benzo[1,2-d]imidazole-5-carboxylic acid]	7.00 to 8.00	> 85%
CO/N=C/c1ccc(COc2cccc(C3CCN(Cc4nc5c(OC)cc(C(=O)O)cc5n4C[C@@H]4CCO4)CC3)n2)c(F)c1 [Compound 9, (S)-2-((4-(6-((2-Fluoro-4-((methoxyimino)methyl)benzyl)oxy)pyridin-2-yl)piperidin-1-yl)methyl)-4-methoxy-1-(oxetan-2-ylmethyl)-1H-benzo[d]imidazole-6-carboxylic acid]	> 8.00	> 85%
COc1cc(C(=O)O)cc2c1nc(CN1CCC(c3cccc4c3OC[C@@H](c3ccc(C#N)cc3F)O4)CC1)n2C [Compound 278, (R)-2-((4-(2-(4-Cyano-2-fluorophenyl)-2,3-dihydrobenzo[b][1,4]dioxin-5-yl)piperidin-1-yl)methyl)-4-methoxy-1-methyl-1H-benzo[d]imidazole-6-carboxylic acid]	6.00 to 7.00	> 85%
Cn1c(CN2CCC(c3cccc(OCc4ccc(C#N)cc4F)n3)CC2)nc2c(OCCO)cc(C(=O)O)cc21 [Compound 291, 2-((4-(6-((4-Cyano-2-fluorobenzyl)oxy)pyridin-2-yl)piperidin-1-yl)methyl)-4-(2-hydroxyethoxy)-1-methyl-1H-benzo[d]imidazole-6-carboxylic acid]	> 8.00	> 85%
Cn1c(CN2CCC(c3cccc(OCc4ccc(Cl)cc4F)n3)CC2)nc2c(OC(F)CF)cc(C(=O)O)cc21 (single isomer, unassigned) [Compound 329]	> 8.00	> 85%
COc1cc(C(=O)O)cc2c1nc(CN1CCC(c3cccc4c3O[C@H](c3ccc(Cl)cc3F)CO4)CC1)n2C [Compound 267, (R)-2-((4-(3-(4-Chloro-2-fluorophenyl)-2,3-dihydrobenzo[b][1,4]dioxin-5-yl)piperidin-1-yl)methyl)-4-methoxy-1-methyl-1H-benzo[d]imidazole-6-carboxylic acid]	6.00 to 7.00	> 85%
CC(=O)Nc1cc(C(=O)O)cc2c1nc(CN1CCC(c3cccc(OCc4ccc(C#N)cc4F)n3)CC1)n2C [Compound 116, 4-acetamido-2-((4-(6-((4-cyano-2-fluorobenzyl)oxy)pyridin-2-yl)piperidin-1-yl)methyl)-1-methyl-1H-benzo[d]imidazole-6-carboxylic acid]	7.00 to 8.00	> 85%
Cn1c(CN2CCC(c3cccc(OCc4ccc(C#N)cc4F)n3)CC2)nc2c(N)cc(C(=O)O)cc21 [Compound 115, 4-amino-2-((4-(6-((4-cyano-2-fluorobenzyl)oxy)pyridin-2-yl)piperidin-1-yl)methyl)-1-methyl-1H-benzo[d]imidazole-6-carboxylic acid]	> 8.00	> 85%
Cn1c(CN2CCC(c3cccc(OCc4ccc(Cl)cc4F)n3)CC2)nc2c(OCC#N)cc(C(=O)O)cc21 [Compound 202]	7.00 to 8.00	> 85%
Cn1c(CN2CCC(c3cccc4c3O[C@H](c3ccc(C#N)cc3F)CO4)CC2)nc2c(OC(F)F)cc(C(=O)O)cc21 [Compound 124, (R)-2-((4-(3-(4-Cyano-2-fluorophenyl)-2,3-dihydrobenzo[b][1,4]dioxin-5-yl)piperidin-1-yl)methyl)-4-(difluoromethoxy)-1-methyl-1H-benzo[d]imidazole-6-carboxylic acid]	< 6.00	25 to 50%
Cn1c(CN2CCC(c3cccc(OCc4ccc(C#N)cc4F)n3)CC2)nc2c(OCCF)cc(C(=O)O)cc21 [Compound 183, 2-((4-(6-((4-Cyano-2-fluorobenzyl)oxy)pyridin-2-yl)piperidin-1-yl)methyl)-4-(2-fluoroethoxy)-1-methyl-1H-benzo[d]imidazole-6-carboxylic acid]	> 8.00	> 85%
CCOc1cc(C(=O)O)cc2c1nc(CN1CCC(c3cccc4c3O[C@@H](c3ccc(C#N)cc3F)CO4)CC1)n2C [Compound 287, (S)-2-((4-(3-(4-Cyano-2-fluorophenyl)-2,3-dihydrobenzo[b][1,4]dioxin-5-yl)piperidin-1-yl)methyl)-4-ethoxy-1-methyl-1H-benzo[d]imidazole-6-carboxylic acid]	< 6.00	> 85%
Cn1c(Cc2ccc(-c3cccc(OCc4ccc(C#N)cc4F)n3)cc2F)nc2c(OC(F)F)cc(C(=O)O)cc21 [Compound 120, 2-(4-(6-((4-Cyano-2-fluorobenzyl)oxy)pyridin-2-yl)-2-fluorobenzyl)-4-(difluoromethoxy)-1-methyl-1H-benzo[d]imidazole-6-carboxylic acid]	> 8.00	> 85%
COc1cc(C(=O)O)cc2c1nc(CN1CCC(c3cccc4c3OC[C@H](c3ccc(C#N)cc3F)O4)CC1)n2C [Compound 274, (S)-2-((4-(2-(4-Cyano-2-fluorophenyl)-2,3-dihydrobenzo[b][1,4]dioxin-5-yl)piperidin-1-yl)methyl)-4-methoxy-1-methyl-1H-benzo[d]imidazole-6-carboxylic acid]	< 6.00	< 25%
CCOc1cc(C(=O)O)cc2c1nc(CN1CCC(c3cccc4c3OC[C@H](c3ccc(Cl)cc3F)O4)CC1)n2C [Compound 270, (S)-2-((4-(2-(4-Chloro-2-fluorophenyl)-2,3-dihydrobenzo[b][1,4]dioxin-5-yl)piperidin-1-yl)methyl)-4-ethoxy-1-methyl-1H-benzo[d]imidazole-6-carboxylic acid]	7.00 to 8.00	> 85%
C[C@@H](F)Oc1cc(C(=O)O)cc2c1nc(CN1CCC(c3cccc(OCc4ccc(C#N)cc4F)n3)CC1)n2C [Compound 312, (R)-2-((4-(6-((4-Cyano-2-fluorobenzyl)oxy)pyridin-2-yl)piperidin-1-yl)methyl)-4-(1-fluoroethoxy)-1-methyl-1H-benzo[d]imidazole-6-carboxylic acid]	7.00 to 8.00	> 85%
CCOc1cc(C(=O)O)cc2c1nc(CN1CCC(c3cccc4c3OC[C@@H](c3ccc(C#N)cc3F)O4)CC1)n2C [Compound 276, (R)-2-((4-(2-(4-Cyano-2-fluorophenyl)-2,3-dihydrobenzo[b][1,4]dioxin-5-yl)piperidin-1-yl)methyl)-4-ethoxy-1-methyl-1H-benzo[d]imidazole-6-carboxylic acid]	7.00 to 8.00	> 85%
Cn1c(CN2CCC(c3ccc(F)c(OCc4ccc(C(N)=O)cc4F)n3)CC2)nc2c(OC(F)F)cc(C(=O)O)cc21 [Compound 185, 2-((4-(6-((4-carbamoyl-2-fluorobenzyl)oxy)-5-fluoropyridin-2-yl)piperidin-1-yl)methyl)-4-(difluoromethoxy)-1-methyl-1H-benzo[d]imidazole-6-carboxylic acid]	6.00 to 7.00	> 85%
Cn1c(CN2CCC(c3cccc4c3OC[C@H](c3ccc(C#N)cc3F)O4)CC2)nc2c(OC(F)F)cc(C(=O)O)cc21 [Compound 326, (S)-2-((4-(2-(4-Cyano-2-fluorophenyl)-2,3-dihydrobenzo[b][1,4]dioxin-5-yl)piperidin-1-yl)methyl)-4-(difluoromethoxy)-1-methyl-1H-benzo[d]imidazole-6-carboxylic acid]	< 6.00	< 25%
O=C(O)c1cc(OC(F)F)c2nc(CN3CCC(c4cccc(OCc5ccc(Cl)cc5F)n4)CC3)n(C3CC3)c2c1 [Compound 199, 2-((4-(6-((4-Chloro-2-fluorobenzyl)oxy)pyridin-2-yl)piperidin-1-yl)methyl)-1-cyclopropyl-4-(difluoromethoxy)-1H-benzo[d]imidazole-6-carboxylic acid]	7.00 to 8.00	> 85%
Cn1c(CN2CCC(c3cccc(OCc4ccc(C#N)cc4F)n3)CC2)nc2c(C(C)(C)O)cc(C(=O)O)cc21 [Compound 126, 2-((4-(6-((4-cyano-2-fluorobenzyl)oxy)pyridin-2-yl)piperidin-1-yl)methyl)-4-(2-hydroxypropan-2-yl)-1-methyl-1H-benzo[d]imidazole-6-carboxylic acid]	< 6.00	50 to 85%
